According to patent US10966426B2, “Herbicidal compositions comprising phenylpyrimidines” (BASF SE, priority 2016, dated 2021):

Tests used:
Type in all cases: in vivo
[1] = system: Polygonum convolvulus; assay: greenhouse post-emergence treatment, POLCO; conditions: Fallopia convolvulus, sc, 480 h, 20 DAT, POLCO
Description: (§1) The culture containers used were plastic pots containing loamy sand with approximately 3.0% of humus as substrate. The seeds of the test plants were sown separately for each species.
(§2) For the post-emergence treatment, the test plants were grown to a plant height of from 3 to 15 cm, depending on the plant habit, and only then treated with the active compounds which had been suspended or emulsified in water. To this end, the test plants were either sown directly, and grown in the same containers, or they were first grown separately as seedlings and transplanted into the test containers a few days prior to treatment.
(§3) Depending on the species, the plants were kept at 10-25° C. and 20-35° C., respectively.
(§4) The test period extended over 2 to 4 weeks. During this time, the plants were tended and their response to the individual treatments was evaluated.
(§5) Evaluation was carried out using a scale from 0 to 100. 100 means no emergence of the plants, or complete destruction of at least the above-ground parts, and 0 means no damage or normal course of growth. A good herbicidal activity is given at values of at least 70, and very good herbicidal activity is given at values of at least 85.
(§6) The respective stated components A and B, and if appropriate, C were formulated as a 10% by weight strength emulsion concentrate and, with addition of the amount of solvent system, introduced into the spray liquor used for applying the active compound. In the examples, the solvent used was water.
(§7) In the examples below, using the method of S. R. Colby (1967) “Calculating synergistic and antagonistic responses of herbicide combinations”, Weeds 15, p. 22ff., the value E, which is expected if the activity of the individual active compounds is only additive, was calculated. E=X+Y−(X·Y/100) where X=effect in percent using herbicide A at an application rate a; • Y=effect in percent using herbicide B at application rate b; • E=expected effect (in %) of herbicide A+herbicide B at application rates a+b.

[2] = system: Bromus sterilis; assay: greenhouse pre-emergence treatment, BROST; conditions: Bromus sterilis, 504 h, 21 DAT, BROST
Description: as §1
(§8) For the pre-emergence treatment, the active compounds, suspended or emulsified in water, were applied directly after sowing by means of finely distributing nozzles. The containers were irrigated gently to promote germination and growth and subsequently covered with transparent plastic hoods until the plants had rooted. This cover caused uniform germination of the test plants unless this was adversely affected by the active compounds.
as §3, §4, §5, §6, §7

[3] = system: Matricaria chamomilla; assay: greenhouse post-emergence treatment, MATCH; conditions: Matricaria chamomilla, sc, 480 h, 20 DAT, MATCH
Description: as §1, §2, §3, §4, §5, §6, §7

[4] = system: Ambrosia elatior; assay: greenhouse pre-emergence treatment, AMBEL; conditions: Ambrosia artemisiifolia, 504 h, 21 DAT, AMBEL
Description: as §1, §8, §3, §4, §5, §6, §7

[5] = system: Stellaria media; assay: greenhouse post-emergence treatment, STEME; conditions: Stellaria media, sc, 480 h, 20 DAT, STEME, pendimethalin SC 400 g/l solo 500 gai/ha
Description: as §1, §2, §3, §4, §5, §6, §7

[6] = system: Digitaria sanguinalis; assay: greenhouse post-emergence treatment, DIGSA; conditions: Digitaria sanguinalis, sc, 480 h, 20 DAT, DIGSA, pendimethalin SC 400 g/l solo 125 gai/ha, read-out: % activity
Description: as §1
(§9) To this end, the test plants were either sown directly, and grown in the same containers, or they were first grown separately as seedlings and transplanted into the test containers a few days prior to treatment.
as §3, §4, §5
(§10) In the examples, the solvent used was water.
(§11) In the examples below, using the method of S. R. Colby (1967) “Calculating synergistic and antagonistic responses of herbicide combinations”, Weeds 15, p. […] E=X+Y−(X·Y/100) where X=effect in percent using herbicide A at an application rate a; • Y=effect in percent using herbicide B at application rate b; • E=expected effect (in %) of herbicide A+herbicide B at application rates a+b.

[7] = system: Lolium multiflorum; assay: greenhouse post-emergence treatment, LOLMU; conditions: Lolium multiflorum, sc, 480 h, 20 DAT, LOLMU, read-out: % activity
Description: as §1, §9, §3, §4, §5, §10, §11

[8] = system: Avena fatua; assay: greenhouse post-emergence treatment, AVEFA; conditions: Avena fatua, sc, 480 h, 20 DAT, AVEFA
Description: as §1, §9, §3, §4, §5, §10, §11

[9] = system: Apera spica-venti; assay: greenhouse post-emergence treatment, APESV; conditions: solo, SC 400 g/l, APESV, 250 gai/ha, 20 DAT
Description: as §1, §2, §3, §4, §5, §6, §7

[10] = system: Avena fatua; assay: greenhouse pre-emergence treatment, AVEFA; conditions: Avena fatua, 504 h, 21 DAT, AVEFA, pendimethalin SC 400 g/l solo 125 gai/ha
Description: as §1, §8, §3, §4, §5, §6, §7

[11] = system: Bromus sterilis; assay: greenhouse post-emergence treatment, BROST; conditions: Bromus sterilis, sc, 480 h, 20 DAT, BROST
Description: as §1, §9, §3, §4, §5, §10, §11

[12] = system: Brachiaria decumbens; assay: greenhouse pre-emergence treatment, BRADC; conditions: Urochloa decumbens, 504 h, 21 DAT, BRADC
Description: as §1, §8, §3, §4, §5, §6, §7

[13] = system: Helianthus annuus; assay: greenhouse pre-emergence treatment, HELAN; conditions: Helianthus annuus, 504 h, 21 DAT, HELAN
Description: as §1, §8, §3, §4, §5, §6, §7

[14] = system: Setaria viridis; assay: greenhouse post-emergence treatment, SETVI; conditions: Setaria viridis, sc, 480 h, 20 DAT, SETVI, pendimethalin SC 400 g/l solo 250 gai/ha, read-out: % activity
Description: as §1, §9, §3, §4, §5, §10, §11

[15] = system: Alopecurus myosuroides; assay: greenhouse post-emergence treatment, ALOMY; conditions: Alopecurus myosuroides, 480 h, 20 DAT, ALOMY, pendimethalin SC 400 g/l solo 125 gai/ha
Description: as §1, §9, §3, §4, §5, §10, §11

[16] = pendimethalin SC 400 g/l solo 125 gai/ha
[17] = pendimethalin SC 400 g/l solo 500 gai/ha
[18] = pendimethalin SC 400 g/l solo 1000 gai/ha
[19] = pendimethalin SC 400 g/l solo 250 gai/ha
[20] = pendimethalin SC 400 g/l solo 125 gai/ha, read-out: % activity

Question: For CCC(CC)Nc1c([N+](=O)[O-])cc(C)c(C)c1[N+](=O)[O-] [pendimethalin], which inhibition at 125 g/ha [1, 16] is on record?
Answer: 40%

Question: And the inhibition at 500 g/ha [1, 17]?
Answer: 60%

Question: What about the inhibition at 250 g/ha ([2]; pendimethalin SC 400 g/l solo 250 gai/ha, read-out: % activity) of the same molecule?
Answer: 0%

Question: What about the inhibition at 500 g/ha [2, 17] of the same molecule?
Answer: 0%

Question: And the inhibition at 1000 g/ha [2, 18]?
Answer: 10%

Question: What about the inhibition at 500 g/ha [3, 17] of the same molecule?
Answer: 0%

Question: And the inhibition at 1000 g/ha [3, 18]?
Answer: 0%

Question: And the percent weed control (herbicidal activity, 0-100 scale) at 250 g/ha [4, 19]?
Answer: 0%

Question: And the percent weed control (herbicidal activity, 0-100 scale) at 1000 g/ha [4, 18]?
Answer: 0%

Question: What about the inhibition at 500 g/ha [5] of the same molecule?
Answer: 70%

Question: What about the inhibition at 125 g/ha [6] of the same molecule?
Answer: 45%

Question: And the inhibition at 125 g/ha [7, 16]?
Answer: 10%

Question: What about the inhibition at 250 g/ha [7, 19] of the same molecule?
Answer: 20%

Question: And the inhibition at 125 g/ha [8, 20]?
Answer: 0%

Question: And the inhibition at 250 g/ha [8, 19]?
Answer: 0%

Question: And the inhibition at 500 g/ha [8, 17]?
Answer: 0%

Question: What about the inhibition at 1000 g/ha [8, 18] of the same molecule?
Answer: 0%

Question: And the “% activity” value [9]?
Answer: 0%

Question: What about the inhibition at 125 g/ha [10] of the same molecule?
Answer: 0%

Question: And the inhibition at 125 g/ha [11, 16]?
Answer: 0%

Question: What about the inhibition at 250 g/ha [11, 19] of the same molecule?
Answer: 0%

Question: What about the inhibition at 500 g/ha [11, 17] of the same molecule?
Answer: 0%

Question: What about the inhibition at 1000 g/ha [11, 18] of the same molecule?
Answer: 0%

Question: What about the % herbicidal activity (weed control, 0-100 scale) at 250 g/ha [12, 19] of the same molecule?
Answer: 0%

Question: What about the % herbicidal activity (weed control, 0-100 scale) at 500 g/ha [12, 17] of the same molecule?
Answer: 0%

Question: And the % herbicidal activity (weed control, 0-100 scale) at 1000 g/ha [12, 18]?
Answer: 0%

Question: And the inhibition at 100 g/ha ([13]; pendimethalin SC 400 g/l solo 100 gai/ha)?
Answer: 10%

Question: What about the inhibition at 125 g/ha [13, 20] of the same molecule?
Answer: 0%

Question: And the inhibition at 250 g/ha [13, 19]?
Answer: 0%

Question: What about the inhibition at 500 g/ha [13, 17] of the same molecule?
Answer: 10%

Question: What about the inhibition at 250 g/ha [14] of the same molecule?
Answer: 50%

Question: What about the inhibition at 125 g/ha [15] of the same molecule?
Answer: 20%
